Experiments:
[1] = Structural integrity of released Avastin (far-UV and fluorescence emission scans); assay type: physicochemical; conditions: after release from the nanogels, versus native and denatured controls
Protocol: Nanogels containing 0, 2 or 5 mol % acrylic acid (AA) loaded with 12.5 or 37.5 wt % Avastin were dispersed in 1 mL PBS (pH 7.4) inside a release device (Float-A-Lyzer® G2, Spectrum Laboratories Inc.) with MWCO 300 kDa at 20 mg/mL. The release device was immersed in 20 mL PBS (pH 7.4) in a 50 mL conical centrifuge tube, and the release was carried out in an incubator shaker at 70 rpm and 37° C. for 100 days. At selected times, the release device was transferred to a new PBS (pH 7.4) release media maintained at 37° C. The amount of Avastin released at each time point was measured using a BCA total protein assay kit (n=4). The fluorescence spectra of released Avastin at late time points were compared to native Avastin® to evaluate the structural integrity of the therapeutic antibody during release.

[2] = system: VEGF expression of hfRPE cells; assay: VEGF ELISA on hfRPE cells with and without UV treatment; assay type: cell-based, human; conditions: Avastin 0.25 mg/mL, nanogels 2 mg/mL, 24 hours
Protocol: To test the ability of Avastin®-loaded nanogels to affect VEGF expression, HfRPE cells were seeded in 96-well plates at a density of 100,000 cells/cm^2. After one day incubation, cell media for all groups was changed to PBS (pH 7.4). Half of all cells were exposed to UV light (1 J/cm) for one hour, and the other half were placed back into the cell incubator. After the 1-hour exposure, PBS (pH 7.4) for all wells were replaced with serum free media (DMEM+pen/strep), then Avastin® at concentration 0.25 mg/mL, and nanogels containing 2 mol % AA with and without 12.5 wt % Avastin® were added into the wells at a concentration of 2 mg/mL. Cells with and without UV treatment were used as controls.
After 24 hours, a VEGF ELISA assay was conducted on all experimental groups.

Bevacizumab [Avastin]
secondary and tertiary protein structures [1]: intact | VEGF expression of hfRPE ([2]; UV-treated cells): reduces the VEGF expression to the level of the cells without UV treatment | VEGF expression of hfRPE ([2]; cells without UV treatment): do not change VEGF expression

Reference: patent publication US20250255808A1, “NANOGEL PLATFORM TECHNOLOGY FOR LONG-TERM BIOLOGICS THERAPY” (UNIVERSITY OF MARYLAND, BALTIMORE, priority 2022, published 2025)
